# Results: patent US12521350B2, “Liquid crystalline dosage form for administering a statin” (CUBOPHARM PTY LTD, priority 2017, dated 2026)
# Assays:
# [1] = In vitro release/permeation of rosuvastatin through porcine buccal mucosa in modified Ussing chambers; assay type: in vitro ADME, pigs
# Procedure: Porcine buccal mucosa was freshly isolated from pigs cheeks, mounted between modified Ussing chambers with a donor chamber, receptor chamber and the porcine buccal mucosa in between with a diffusional area of 0.64 cm^2, and incubated in Krebs bicarbonate Ringer buffer (KBR, pH 7.4) for 30 min. The mixture or tablet containing rosuvastatin (supplied by Aspen Pharmacare Australia) were applied to the porcine buccal mucosa (ie in the donor chamber) and, when necessary, Parafilm was applied to cover the formulation (ie for tablets and for mixtures containing glyceryl monooleate (GMO) and rosuvastatin). The Parafilm prevented the various formulations from detaching from the buccal mucosa. KBR buffer (1.5 mL) was then added to both the donor and receptor chambers, and receptor samples (200 μL) were collected from the receptor chamber at various time points up to 4-5 hours to determine the amount of rosuvastatin that passed through the porcine buccal mucosa to the receptor chamber. 200 μL of fresh KBR was dispensed into the receptor chamber after each collection (to ensure volume balance). Receptor chamber samples were provided to Aspen Pharmacare Australia for quantification of rosuvastatin by HPLC.
# Positive control was tested by making rosuvastatin solutions of 0.4 and 0.8 mg/1.5 ml KBR solution, equivalent to 1:[…] ODT's. […]
# human subjects = experiment: Blood lipid changes after three single 5 mg rosuvastatin doses (Example 7); assay type: in vivo
# Source text: Each participant was given a single dose of medication on separate occasions after appropriate wash-out periods. […]
# [2] = 10 mg, after 6 weeks therapy; cited from earlier work
# [3] = Mean of 3 subjects, three single 5 mg doses
# [4] = Person (buccal dosing), three single 5 mg doses
# [5] = Person one (sublingual dosing), three single 5 mg doses
# [6] = Person two (sublingual dosing), three single 5 mg doses
# [7] = after three single 5 mg rosuvastatin doses
structure (smiles),measurement,setting,value
CC(C)c1nc(N(C)S(C)(=O)=O)nc(-c2ccc(F)cc2)c1/C=C/[C@@H](O)C[C@@H](O)CC(=O)O [rosuvastatin],Total rosuvastatin absorbed per minute,"[1]; positive control solution 0.4 mg/1.5 ml KBR, equivalent to 1:1 ODT",0.6 ng/mL
same,Total rosuvastatin absorbed per minute,"[1]; positive control solution 0.8 mg/1.5 ml KBR, equivalent to 7:1 ODT",0.3 ng/mL
same,% change in HDL,human subjects; [3],4.8%
same,% change in LDL,human subjects; [3],−26.54%
same,% change in Triglycerides,human subjects; [3],−7.91%
same,% change in total cholesterol,human subjects; [3],−16.8%
same,% change in HDL,human subjects; [4],5.9%
same,% change in LDL,human subjects; [4],−35.7%
same,% change in Triglycerides,human subjects; [4],20.0%
same,% change in total cholesterol,human subjects; [4],−20.3%
same,% change in HDL,human subjects; [5],−5.9%
same,% change in LDL,human subjects; [5],−21.05%
same,% change in Triglycerides,human subjects; [5],−37.5%
same,% change in total cholesterol,human subjects; [5],−17.5%
same,% change in total cholesterol,"human subjects; Person two (sublingual dosing), after 5 mg Crestor, 5 mg 1:1 tablet and 5 mg 7:1 tablet on consecutive days",−12.7%
same,% change in HDL,human subjects; [6],14.3%
same,% change in LDL,human subjects; [6],−22.9%
same,% change in Triglycerides,human subjects; [6],−16.6%
same,increase of HDL,human subjects; [7],5%
same,reduction of low density lipoproteins (LDL-C),human subjects; [7],27%
same,reduction of total cholesterol (TC),human subjects; [7],17%
CC(C)c1c(C(=O)Nc2ccccc2)c(-c2ccccc2)c(-c2ccc(F)cc2)n1CC[C@@H](O)C[C@@H](O)CC(=O)O [atorvastatin],Reductions in LDL-C,[2],37%
